# In article PMC8966651, “PKPD Modeling of the Inoculum Effect of Acinetobacter baumannii on Polymyxin B in vivo” (Frontiers in Pharmacology, 2022):
# Structures can show the parent of a compound that is named as a salt. Bridge positions count the residues as written; N and C are the ends. Square brackets hold non-standard residues; d marks the D form. Peptide text beside a SMILES is read from it. * marks the point of attachment. X1 = CC[C@H](C)CCCCC(=O)*; Dab = NCC[C@H](N)C(=O)O
# What was measured:
# A. baumannii (CS01) = experiment: In vivo PKPD model of PMB bactericidal effect and inoculum effect; set-up: species or system Acinetobacter baumannii; conditions: for mean IK-HL (initial killing half-life): mean over PMB concentrations; for kslope (kill rate constant due to PMB): model predicted
# Source text: A PKPD model was developed in two steps to quantify the exposure-effect relationship of PMB in infected mice. First, time courses of total and unbound PMB concentrations were modeled and then, PK parameters were fixed during development of the PD part of the PKPD model.
# The structural model for the bacterial population included one compartment representing drug-susceptible growing bacteria. A logistic function was used to model the self-limiting growth observed in vivo: dB/dt= knet×(1−B/Bmax)×B (1) Where, B (CFU/thigh) is the drug-susceptible bacterial population, knet (h^−1) is the apparent (net) growth rate constant and Bmax (CFU/thigh) the maximum bacterial count reached in the tissue. The residual error was additive on a log10 scale for bacterial counts (log10 CFU/thigh).
# Predicted unbound plasma concentrations were linked to the bacterial sub-model using a mathematical function to characterize PMB antimicrobial effect (kPMB) such as: dB/dt= knet×(1−B/Bmax)×B − kPMB×B (2) Where multiple functions (linear, power, basic Emax or a sigmoidal Emax function) for kPMB were tested.
# Empirical mathematical functions (i.e. linear, exponential and power) describing the relationship between kPMB and inoculum size were tested as a way to include the impact of inoculum size on PMB bactericidal activity.”
# Model selection was based on objective function value (OFV) and goodness of fit (GOF) plots. When two models were nested, a decrease in OFV of at least 3.84 (chi square 1df p = 0.05) was needed to select the most complex model. Visual predictive checks (VPCs) based on 1,000 simulations were drawn after stratification on the PMB dose and the starting inoculum to evaluate the predictive performance of the model and were taken into account for model selection. Data below the LOQ were taken into account during parameter estimation by applying Beal’s M3 method ([Beal, 2001]). Parameter estimation was performed using NONMEM software (ICON, Dublin, Ireland) version 7.4.2 using the LAPLACIAN algorithm. Uncertainty around population parameters was estimated using the sampling importance resampling (SIR) technique ([Dosne et al., 2016]).
# To evaluate the impact of outliers on parameter estimates and model-based inferences, a sensitivity analysis was performed. Briefly, model estimation was performed with the complete dataset and with a reduced dataset excluding outliers. Parameter estimates were compared and simulations of expected bacterial counts for all tested experimental conditions (i.e. all inocula and dosing regimens) were performed with the two parameter estimate sets.
# The time course of bacterial counts was adequately described by the model depicted on Figure 1. VPCs of the final model are shown on Figure 3 and GOF plots on Supplementary Figure S4. PMB bactericidal effect (kPMB) was best described by a power function: kPMB = kslope × Cuγ (5) Where kslope corresponds to the kill rate constant due to PMB (L/mg.h), Cu the unbound PMB concentration (mg/L) and γ , the power parameter for PMB effect.
# The inoculum effect was incorporated in the model as a decrease of kslope with increasing theoretical starting inoculum using a linear function: kslope=kslope,med +kinoc×(starting inoculum−6) (6) Where kslope,med is the kill rate constant for a theoretical starting inoculum of 6 log10 CFU/thigh corresponding to the median of the starting inoculum tested in the present study (5, 6 or 7 log10 CFU/thigh) and kinoc is the constant describing the inoculum effect on kslope.
# [1] = ultracentrifugation, ref Landersdorfer et al., 2018, cited from earlier work
# Source text: This discrepancy may be explained by differences in methodology. We used ultra-filtration after correction for non-specific adsorption on membranes to determine unbound fraction individually in infected mice, whereas the previous study used ultracentrifugation and pooled plasma sampled drawn from infected mi ...
compound,measurement,setting,value
"CC[C@H](C)CCCCC(=O)N[C@@H](CCN)C(=O)N[C@H](C(=O)N[C@@H](CCN)C(=O)N[C@H]1CCNC(=O)[C@H]([C@@H](C)O)NC(=O)[C@H](CCN)NC(=O)[C@H](CCN)NC(=O)[C@H](CC(C)C)NC(=O)[C@@H](Cc2ccccc2)NC(=O)[C@H](CCN)NC1=O)[C@@H](C)O [PMB, Polymyxin B sulfate] (X1-[Dab]T[Dab][Dab][Dab][dF]L[Dab][Dab]T; lactam 4-C)",mean IK-HL higher at 10^7 CFU/thigh compared with 10^5 CFU/thigh inoculum,A. baumannii (CS01); in vivo,48%
same,mean IK-HL (initial killing half-life),"A. baumannii (CS01); in vivo, inoculum 10^5 CFU/thigh",32.4 min
same,mean IK-HL (initial killing half-life),"A. baumannii (CS01); in vivo, inoculum 10^7 CFU/thigh",48 min
same,kslope (kill rate constant due to PMB),A. baumannii (CS01); starting inoculum 5 log10 CFU/thigh,19800 µL/min/mg
same,kslope (kill rate constant due to PMB),A. baumannii (CS01); starting inoculum 7 log10 CFU/thigh,13500 µL/min/mg
same,decrease in the in vivo PMB bactericidal effect,A. baumannii (CS01); starting inoculum increases from 10^5 to 10^7 CFU/thigh,32%
same,change of kslope,A. baumannii (CS01); starting inoculum increasing from 5 to 7 log10 CFU/thigh,−32%
same,Model derived initial killing half-life,"A. baumannii (CS01); unbound PMB 0.5 mg/L, inoculum 10^5 CFU/thigh",39 min
same,Model derived initial killing half-life,"A. baumannii (CS01); unbound PMB 0.5 mg/L, inoculum 10^6 CFU/thigh",47 min
same,Model derived initial killing half-life,"A. baumannii (CS01); unbound PMB 0.5 mg/L, inoculum 10^7 CFU/thigh",58 min
same,Model derived initial killing half-life,"A. baumannii (CS01); unbound PMB 1 mg/L, inoculum 10^5 CFU/thigh",35 min
same,Model derived initial killing half-life,"A. baumannii (CS01); unbound PMB 1 mg/L, inoculum 10^6 CFU/thigh",42 min
same,Model derived initial killing half-life,"A. baumannii (CS01); unbound PMB 1 mg/L, inoculum 10^7 CFU/thigh",52 min
same,Model derived initial killing half-life,"A. baumannii (CS01); unbound PMB 2 mg/L, inoculum 10^5 CFU/thigh",31 min
same,Model derived initial killing half-life,"A. baumannii (CS01); unbound PMB 2 mg/L, inoculum 10^6 CFU/thigh",37 min
same,Model derived initial killing half-life,"A. baumannii (CS01); unbound PMB 2 mg/L, inoculum 10^7 CFU/thigh",46 min
same,Model derived initial killing half-life,"A. baumannii (CS01); unbound PMB 3 mg/L, inoculum 10^5 CFU/thigh",29 min
same,Model derived initial killing half-life,"A. baumannii (CS01); unbound PMB 3 mg/L, inoculum 10^6 CFU/thigh",35 min
same,Model derived initial killing half-life,"A. baumannii (CS01); unbound PMB 3 mg/L, inoculum 10^7 CFU/thigh",43 min
same,Model derived initial killing half-life,"A. baumannii (CS01); unbound PMB 4 mg/L, inoculum 10^5 CFU/thigh",28 min
same,Model derived initial killing half-life,"A. baumannii (CS01); unbound PMB 4 mg/L, inoculum 10^6 CFU/thigh",33 min
same,Model derived initial killing half-life,"A. baumannii (CS01); unbound PMB 4 mg/L, inoculum 10^7 CFU/thigh",41 min
same,plasma protein binding,"[1]; mouse plasma, pooled plasma spiked with PMB",~90%
same,unbound fraction,[1]; pooled plasma from infected mice spiked with PMB,0.086
